In PMC4685510, “A Cell Biologist’s Field Guide to Aurora Kinase Inhibitors” (Frontiers in Oncology, 2015):
Like-named read-outs stand apart in the source and are kept apart here.

Experiments:
Assay in all cases: biochemical
Type in all cases: biochemical
[1] = biological target: T1, 363 human kinases (including Aurora A/B/C) (Homo sapiens, UniProt O14920); conditions: IKKb/IKBKB; for remaining activity at 0.1 µM: 100 nM; for remaining activity at 0.1 µM / remaining activity at 0.5 µM: read-out: % Enzyme Activity (relative to DMSO controls)
T1 sequence (O14920 1-756): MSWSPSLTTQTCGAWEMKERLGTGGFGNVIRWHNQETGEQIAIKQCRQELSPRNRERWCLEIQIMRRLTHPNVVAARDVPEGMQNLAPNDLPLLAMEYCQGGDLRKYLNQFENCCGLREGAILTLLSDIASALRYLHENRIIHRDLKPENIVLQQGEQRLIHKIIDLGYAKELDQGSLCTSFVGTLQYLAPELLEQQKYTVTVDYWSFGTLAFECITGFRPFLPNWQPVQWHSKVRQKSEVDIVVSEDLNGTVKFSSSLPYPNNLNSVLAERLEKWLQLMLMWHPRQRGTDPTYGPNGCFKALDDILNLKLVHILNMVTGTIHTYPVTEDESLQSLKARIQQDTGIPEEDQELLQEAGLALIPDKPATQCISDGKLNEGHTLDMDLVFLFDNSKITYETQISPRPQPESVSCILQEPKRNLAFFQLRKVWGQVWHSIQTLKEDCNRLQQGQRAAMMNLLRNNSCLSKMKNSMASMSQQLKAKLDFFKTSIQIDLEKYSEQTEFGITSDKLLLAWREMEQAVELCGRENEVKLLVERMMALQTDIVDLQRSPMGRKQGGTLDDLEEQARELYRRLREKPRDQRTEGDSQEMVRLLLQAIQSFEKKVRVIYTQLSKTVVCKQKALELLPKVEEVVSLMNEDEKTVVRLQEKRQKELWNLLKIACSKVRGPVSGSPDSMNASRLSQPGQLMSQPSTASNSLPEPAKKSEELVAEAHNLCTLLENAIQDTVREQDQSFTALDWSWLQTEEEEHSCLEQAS
Text: (§1) However, the Aurora A/B selectivity ratios derived from our in vitro and in vivo data can be compared to prioritize inhibitors.

[2] = biological target: T2, 363 human kinases (including Aurora A/B/C) (Homo sapiens, UniProt O14965); conditions: [ATP] 2.5 µM; for remaining activity at 0.1 µM: 100 nM
T2 sequence (O14965 1-403): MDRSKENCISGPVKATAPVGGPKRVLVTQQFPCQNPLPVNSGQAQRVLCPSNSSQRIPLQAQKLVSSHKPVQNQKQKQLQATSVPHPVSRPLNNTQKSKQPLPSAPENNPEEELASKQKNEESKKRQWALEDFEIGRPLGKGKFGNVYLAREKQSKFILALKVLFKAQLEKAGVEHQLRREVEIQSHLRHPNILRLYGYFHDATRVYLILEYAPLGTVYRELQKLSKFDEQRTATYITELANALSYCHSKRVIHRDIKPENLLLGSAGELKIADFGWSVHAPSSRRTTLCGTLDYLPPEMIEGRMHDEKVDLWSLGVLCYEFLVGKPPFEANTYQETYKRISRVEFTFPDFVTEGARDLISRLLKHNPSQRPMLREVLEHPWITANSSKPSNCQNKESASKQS
Text: as §1

[3] = biological target: T3, 363 human kinases (including Aurora A/B/C) (Homo sapiens, UniProt Q32MK0); conditions: MYLK3; for remaining activity at 0.1 µM: 100 nM; for remaining activity at 0.1 µM / remaining activity at 0.5 µM: read-out: % Enzyme Activity (relative to DMSO controls)
T3 sequence (Q32MK0 1-819): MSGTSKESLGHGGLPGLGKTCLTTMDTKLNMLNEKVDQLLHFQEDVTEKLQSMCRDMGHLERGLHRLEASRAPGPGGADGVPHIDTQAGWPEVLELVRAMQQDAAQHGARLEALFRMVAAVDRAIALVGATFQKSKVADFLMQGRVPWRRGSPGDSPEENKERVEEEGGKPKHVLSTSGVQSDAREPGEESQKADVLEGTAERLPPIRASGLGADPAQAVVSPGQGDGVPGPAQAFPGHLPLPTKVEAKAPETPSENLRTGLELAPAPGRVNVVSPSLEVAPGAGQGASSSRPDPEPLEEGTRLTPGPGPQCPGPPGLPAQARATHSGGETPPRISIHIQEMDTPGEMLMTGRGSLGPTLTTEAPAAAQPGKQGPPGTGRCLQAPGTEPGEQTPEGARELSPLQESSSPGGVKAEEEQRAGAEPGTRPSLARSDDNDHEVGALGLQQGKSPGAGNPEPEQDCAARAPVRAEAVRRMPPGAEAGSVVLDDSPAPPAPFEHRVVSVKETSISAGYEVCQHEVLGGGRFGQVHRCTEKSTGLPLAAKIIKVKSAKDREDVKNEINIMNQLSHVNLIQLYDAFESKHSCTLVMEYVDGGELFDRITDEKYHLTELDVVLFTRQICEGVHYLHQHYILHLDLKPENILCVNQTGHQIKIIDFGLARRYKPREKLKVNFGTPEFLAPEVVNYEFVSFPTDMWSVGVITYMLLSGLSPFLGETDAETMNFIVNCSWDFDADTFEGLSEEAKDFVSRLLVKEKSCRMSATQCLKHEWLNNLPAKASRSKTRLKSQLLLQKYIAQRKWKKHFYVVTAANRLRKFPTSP
Text: as §1

[4] = biological target: 363 human kinases (including Aurora A/B/C) (Homo sapiens, UniProt Q13233); conditions: MEKK1; for remaining activity at 0.1 µM: 100 nM; for remaining activity at 0.1 µM / remaining activity at 0.5 µM: read-out: % Enzyme Activity (relative to DMSO controls)
Sequence of 363 human kinases (including Aurora A/B/C) (Homo sapiens, UniProt Q13233) (Q13233 whole entry): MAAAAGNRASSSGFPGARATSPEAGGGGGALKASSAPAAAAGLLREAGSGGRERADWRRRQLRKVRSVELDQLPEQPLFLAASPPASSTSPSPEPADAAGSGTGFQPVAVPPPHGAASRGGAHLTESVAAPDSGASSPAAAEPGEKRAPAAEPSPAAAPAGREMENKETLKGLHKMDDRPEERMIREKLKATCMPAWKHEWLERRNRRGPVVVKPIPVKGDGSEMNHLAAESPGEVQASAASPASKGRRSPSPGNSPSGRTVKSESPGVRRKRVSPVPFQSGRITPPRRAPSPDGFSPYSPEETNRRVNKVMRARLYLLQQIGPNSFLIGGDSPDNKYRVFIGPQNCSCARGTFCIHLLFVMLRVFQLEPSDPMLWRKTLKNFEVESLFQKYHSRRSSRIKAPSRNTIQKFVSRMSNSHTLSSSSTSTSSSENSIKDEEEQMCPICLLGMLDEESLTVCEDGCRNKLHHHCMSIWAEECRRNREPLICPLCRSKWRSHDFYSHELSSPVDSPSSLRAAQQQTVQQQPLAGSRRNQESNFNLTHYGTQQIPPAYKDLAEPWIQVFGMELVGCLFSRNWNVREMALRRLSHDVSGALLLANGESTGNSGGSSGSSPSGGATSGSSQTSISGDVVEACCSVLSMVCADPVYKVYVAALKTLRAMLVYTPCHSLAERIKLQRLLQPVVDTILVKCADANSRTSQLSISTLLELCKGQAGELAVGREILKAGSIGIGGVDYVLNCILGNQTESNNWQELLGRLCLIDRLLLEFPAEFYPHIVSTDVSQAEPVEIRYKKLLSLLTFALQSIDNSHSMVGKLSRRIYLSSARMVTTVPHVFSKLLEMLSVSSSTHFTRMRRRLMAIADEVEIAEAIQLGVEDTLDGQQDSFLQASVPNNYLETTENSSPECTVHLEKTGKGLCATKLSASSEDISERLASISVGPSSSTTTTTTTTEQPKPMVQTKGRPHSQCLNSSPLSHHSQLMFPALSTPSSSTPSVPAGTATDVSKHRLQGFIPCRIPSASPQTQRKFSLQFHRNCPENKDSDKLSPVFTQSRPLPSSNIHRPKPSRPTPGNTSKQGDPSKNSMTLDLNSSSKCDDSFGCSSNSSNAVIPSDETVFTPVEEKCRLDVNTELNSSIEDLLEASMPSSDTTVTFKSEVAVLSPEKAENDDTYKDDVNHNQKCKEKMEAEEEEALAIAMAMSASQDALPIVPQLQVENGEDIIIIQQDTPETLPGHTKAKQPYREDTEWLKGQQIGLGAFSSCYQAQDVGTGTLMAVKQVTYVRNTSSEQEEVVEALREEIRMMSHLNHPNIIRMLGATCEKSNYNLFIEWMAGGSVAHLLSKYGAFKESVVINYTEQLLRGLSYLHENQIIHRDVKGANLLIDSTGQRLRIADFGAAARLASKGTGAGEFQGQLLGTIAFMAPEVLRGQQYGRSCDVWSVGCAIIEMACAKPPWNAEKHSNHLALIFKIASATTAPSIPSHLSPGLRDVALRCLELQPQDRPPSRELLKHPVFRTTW
Text: as §1

[5] = biological target: 363 human kinases (including Aurora A/B/C) (Homo sapiens, UniProt P34947); conditions: GRK5; for remaining activity at 0.1 µM: 100 nM; for remaining activity at 0.1 µM / remaining activity at 0.5 µM: read-out: % Enzyme Activity (relative to DMSO controls)
Sequence of 363 human kinases (including Aurora A/B/C) (Homo sapiens, UniProt P34947) (P34947 whole entry): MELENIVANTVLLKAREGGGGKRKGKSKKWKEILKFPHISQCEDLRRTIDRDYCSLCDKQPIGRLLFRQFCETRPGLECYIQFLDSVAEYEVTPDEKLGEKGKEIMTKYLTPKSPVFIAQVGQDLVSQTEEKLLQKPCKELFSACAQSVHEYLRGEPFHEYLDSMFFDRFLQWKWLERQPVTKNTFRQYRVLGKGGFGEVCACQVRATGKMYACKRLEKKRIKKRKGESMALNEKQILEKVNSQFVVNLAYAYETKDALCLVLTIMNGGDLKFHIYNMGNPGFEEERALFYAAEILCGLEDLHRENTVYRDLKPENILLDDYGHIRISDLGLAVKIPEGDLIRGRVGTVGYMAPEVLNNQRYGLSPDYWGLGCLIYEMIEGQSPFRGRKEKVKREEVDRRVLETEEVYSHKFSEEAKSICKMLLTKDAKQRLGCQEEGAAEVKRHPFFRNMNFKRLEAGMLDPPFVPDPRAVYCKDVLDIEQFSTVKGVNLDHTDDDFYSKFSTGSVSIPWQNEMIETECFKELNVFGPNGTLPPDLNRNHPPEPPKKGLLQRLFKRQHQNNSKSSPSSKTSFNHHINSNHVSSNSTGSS
Text: as §1

[6] = biological target: 363 human kinases (including Aurora A/B/C) (Homo sapiens, UniProt Q9Y3S1); conditions: WNK2; for remaining activity at 0.1 µM: 100 nM; for remaining activity at 0.1 µM / remaining activity at 0.5 µM: read-out: % Enzyme Activity (relative to DMSO controls)
Sequence of 363 human kinases (including Aurora A/B/C) (Homo sapiens, UniProt Q9Y3S1) (Q9Y3S1 whole entry): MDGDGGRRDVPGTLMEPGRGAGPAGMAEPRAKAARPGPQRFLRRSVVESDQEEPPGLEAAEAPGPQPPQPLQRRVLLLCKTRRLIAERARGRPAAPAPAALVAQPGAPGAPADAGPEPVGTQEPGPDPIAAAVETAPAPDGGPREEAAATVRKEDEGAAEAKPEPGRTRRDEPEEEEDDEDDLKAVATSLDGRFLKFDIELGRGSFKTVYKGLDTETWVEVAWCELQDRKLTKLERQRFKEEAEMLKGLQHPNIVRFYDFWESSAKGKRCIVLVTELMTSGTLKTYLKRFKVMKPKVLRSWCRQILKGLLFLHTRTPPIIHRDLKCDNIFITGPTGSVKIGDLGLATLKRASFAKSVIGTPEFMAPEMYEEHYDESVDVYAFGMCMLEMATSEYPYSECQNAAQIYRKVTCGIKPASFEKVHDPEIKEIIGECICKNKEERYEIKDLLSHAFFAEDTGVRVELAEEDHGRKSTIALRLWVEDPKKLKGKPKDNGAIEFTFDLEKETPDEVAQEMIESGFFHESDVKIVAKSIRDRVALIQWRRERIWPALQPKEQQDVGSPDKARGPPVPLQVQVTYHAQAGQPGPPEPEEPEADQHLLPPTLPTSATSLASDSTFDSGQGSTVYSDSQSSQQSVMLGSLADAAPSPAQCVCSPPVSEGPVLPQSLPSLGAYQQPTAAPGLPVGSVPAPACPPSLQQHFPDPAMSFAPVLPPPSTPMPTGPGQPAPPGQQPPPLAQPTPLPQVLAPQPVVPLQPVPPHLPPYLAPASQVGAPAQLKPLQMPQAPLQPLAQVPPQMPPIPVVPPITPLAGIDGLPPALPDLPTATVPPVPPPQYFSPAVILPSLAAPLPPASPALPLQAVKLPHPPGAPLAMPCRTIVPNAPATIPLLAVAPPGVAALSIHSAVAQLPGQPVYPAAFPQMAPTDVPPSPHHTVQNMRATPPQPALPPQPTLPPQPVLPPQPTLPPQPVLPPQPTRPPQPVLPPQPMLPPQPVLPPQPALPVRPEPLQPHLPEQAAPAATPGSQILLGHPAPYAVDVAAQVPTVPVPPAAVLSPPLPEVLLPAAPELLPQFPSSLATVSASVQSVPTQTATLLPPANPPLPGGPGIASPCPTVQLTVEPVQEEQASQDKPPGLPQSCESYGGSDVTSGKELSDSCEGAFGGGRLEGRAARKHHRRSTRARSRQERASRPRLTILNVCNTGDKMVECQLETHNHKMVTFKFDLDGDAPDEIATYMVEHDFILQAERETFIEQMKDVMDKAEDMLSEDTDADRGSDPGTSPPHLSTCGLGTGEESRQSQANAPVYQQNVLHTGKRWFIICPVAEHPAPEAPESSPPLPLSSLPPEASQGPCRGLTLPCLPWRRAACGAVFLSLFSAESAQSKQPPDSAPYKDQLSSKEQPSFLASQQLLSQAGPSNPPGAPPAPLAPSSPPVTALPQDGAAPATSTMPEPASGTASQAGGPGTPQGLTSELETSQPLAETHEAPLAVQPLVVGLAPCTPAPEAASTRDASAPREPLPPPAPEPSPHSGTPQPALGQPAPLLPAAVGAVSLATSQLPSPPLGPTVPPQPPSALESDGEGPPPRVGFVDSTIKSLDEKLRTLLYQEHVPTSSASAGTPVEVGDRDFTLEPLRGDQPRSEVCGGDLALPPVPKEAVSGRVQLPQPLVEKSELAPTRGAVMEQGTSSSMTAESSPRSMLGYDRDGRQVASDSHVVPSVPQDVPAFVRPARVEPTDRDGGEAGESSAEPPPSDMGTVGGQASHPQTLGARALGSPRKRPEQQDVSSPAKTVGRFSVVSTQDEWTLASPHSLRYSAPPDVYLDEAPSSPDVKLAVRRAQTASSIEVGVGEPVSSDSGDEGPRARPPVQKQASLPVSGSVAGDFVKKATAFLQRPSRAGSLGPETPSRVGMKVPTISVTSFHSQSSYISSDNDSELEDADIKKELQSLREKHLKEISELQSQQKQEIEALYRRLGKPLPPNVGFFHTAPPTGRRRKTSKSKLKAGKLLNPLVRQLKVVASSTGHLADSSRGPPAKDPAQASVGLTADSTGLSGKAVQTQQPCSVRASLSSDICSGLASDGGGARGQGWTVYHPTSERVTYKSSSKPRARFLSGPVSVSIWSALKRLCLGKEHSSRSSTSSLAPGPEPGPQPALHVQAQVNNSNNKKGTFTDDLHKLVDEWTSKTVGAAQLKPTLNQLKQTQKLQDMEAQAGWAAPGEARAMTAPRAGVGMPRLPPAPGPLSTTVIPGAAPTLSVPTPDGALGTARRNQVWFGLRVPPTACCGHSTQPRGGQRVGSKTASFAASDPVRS
Text: as §1

[7] = biological target: T4, 363 human kinases (including Aurora A/B/C) (Homo sapiens, UniProt P15735); conditions: PHKg2; for remaining activity at 0.1 µM: 100 nM; for remaining activity at 0.1 µM / remaining activity at 0.5 µM: read-out: % Enzyme Activity (relative to DMSO controls)
T4 sequence (P15735 1-406): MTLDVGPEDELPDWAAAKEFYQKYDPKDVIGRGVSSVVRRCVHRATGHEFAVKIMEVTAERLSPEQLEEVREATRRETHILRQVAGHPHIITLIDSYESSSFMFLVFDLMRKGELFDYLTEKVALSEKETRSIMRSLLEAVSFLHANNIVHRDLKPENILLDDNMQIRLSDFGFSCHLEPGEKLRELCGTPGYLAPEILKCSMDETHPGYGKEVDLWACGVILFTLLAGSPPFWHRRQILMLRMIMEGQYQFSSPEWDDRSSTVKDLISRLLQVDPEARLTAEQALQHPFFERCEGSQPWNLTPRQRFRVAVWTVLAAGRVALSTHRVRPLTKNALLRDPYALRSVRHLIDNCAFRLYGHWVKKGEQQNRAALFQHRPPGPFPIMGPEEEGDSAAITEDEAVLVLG
Text: as §1

[8] = biological target: 363 human kinases (including Aurora A/B/C) (Homo sapiens, UniProt Q86V86); conditions: PIM3; for remaining activity at 0.1 µM: 100 nM; for remaining activity at 0.1 µM / remaining activity at 0.5 µM: read-out: % Enzyme Activity (relative to DMSO controls)
Text: as §1

CCn1cc(-c2ccnc3[nH]c(-c4cccc(CN(C)C)c4)cc23)c(-c2ccc(NC(=O)N(C)C)cc2)n1 [GSK1070916] showed a remaining activity at 0.1 µM [1] of 126%, a remaining activity at 0.1 µM ([2]; read-out: % Enzyme Activity (relative to DMSO controls), Aurora A) of 25.9% and a remaining activity at 0.1 µM [3] of 102%. It also gave a remaining activity at 0.1 µM [4] of 91.8%, a remaining activity at 0.1 µM [5] of 96.3% and a remaining activity at 0.1 µM [6] of 92.3%. The remaining activity at 0.1 µM [7] was 95.3% and the remaining activity at 0.1 µM [8] was 106%.

With O=C(c1cccc(Cl)c1F)N1CCN(Cc2cccc(Nc3nccs3)n2)CC1 [MK-8745] the “% Enzyme Activity (relative to DMSO controls)” value ([1]; 500 nM) was 112.10%, the remaining activity at 0.5 µM ([1]; 500 nM) was 119% and the “% Enzyme Activity (relative to DMSO controls)” value ([2]; Aurora A, 500 nM) was 0.37%. The remaining activity at 0.5 µM ([2]; Aurora A, 500 nM, read-out: % Enzyme Activity (relative to DMSO controls)) was 0.55%, the “% Enzyme Activity (relative to DMSO controls)” value ([3]; 500 nM) was 102.40% and the remaining activity at 0.5 µM ([3]; 500 nM) was 103%. For the same compound, the “% Enzyme Activity (relative to DMSO controls)” value ([4]; 500 nM) was 100.17%, the remaining activity at 0.5 µM ([4]; 500 nM) was 101% and the “% Enzyme Activity (relative to DMSO controls)” value ([5]; 500 nM) was 94.27%. The remaining activity at 0.5 µM ([5]; 500 nM) was 95.8%, the “% Enzyme Activity (relative to DMSO controls)” value ([6]; 500 nM) was 101.71% and the remaining activity at 0.5 µM ([6]; 500 nM) was 102%. The “% Enzyme Activity (relative to DMSO controls)” value ([7]; 500 nM) was 94.03%, the remaining activity at 0.5 µM ([7]; 500 nM) was 94.7% and the “% Enzyme Activity (relative to DMSO controls)” value ([8]; 500 nM) was 94.49%. It also gave a remaining activity at 0.5 µM ([8]; 500 nM) of 96%.

O=C(O)[C@]1(Cc2cccc(Nc3nccs3)n2)CC[C@@H](Oc2cccc(Cl)c2F)CC1 [MK-5108] was tested, and the remaining activity at 0.1 µM [1] was 103%, the remaining activity at 0.5 µM ([1]; 500 nM) was 128% and the remaining activity at 0.1 µM ([2]; Aurora A, read-out: % Enzyme Activity (relative to DMSO controls)) was 2.38%. It also gave a remaining activity at 0.1 µM [3] of 97.3%, a remaining activity at 0.5 µM ([3]; 500 nM) of 99.7% and a remaining activity at 0.1 µM [4] of 104%. The remaining activity at 0.5 µM ([4]; 500 nM) was 87%, the remaining activity at 0.1 µM [5] was 102% and the remaining activity at 0.5 µM ([5]; 500 nM) was 90.9%. The remaining activity at 0.1 µM [6] was 83%, the remaining activity at 0.5 µM ([6]; 500 nM) was 33.8% and the remaining activity at 0.1 µM [7] was 92.2%. It also gave a remaining activity at 0.5 µM ([7]; 500 nM) of 93.6%, a remaining activity at 0.1 µM [8] of 93.8% and a remaining activity at 0.5 µM ([8]; 500 nM) of 62.2%.
